# Assay results taken from US8163753B2, “2,3-dihydro-6-nitroimidazo (2,1-b) oxazole compounds for the treatment of tuberculosis” (priority 2003, dated 2012).
row,SMILES,melting point
1,CN(c1ccc(Cl)cc1)C1CCN(C2CCN(c3ccc(OC[C@@]4(C)Cn5cc([N+](=O)[O-])nc5O4)cc3)CC2)CC1,230.8 to 232 °C
2,C[C@]1(COc2ccc(N3CCC(CCOCc4ccc(C(F)(F)F)cc4)CC3)cc2)Cn2cc([N+](=O)[O-])nc2O1,198 to 199.2 °C
3,C[C@]1(COc2ccc(N3CCC(Cc4ccc(Cl)cc4)CC3)cc2)Cn2cc([N+](=O)[O-])nc2O1,207.1 to 211.2 °C
4,C[C@]1(COc2ccc(N3CCC(CCOCc4ccc(OC(F)(F)F)cc4)CC3)cc2)Cn2cc([N+](=O)[O-])nc2O1,204.8 to 206.7 °C
5,C[C@]1(COc2ccc(N3CCC(Nc4ccc(Oc5ccc(OC(F)(F)F)cc5)cc4)CC3)cc2)Cn2cc([N+](=O)[O-])nc2O1,198.6 to 201.1 °C (dec.)
6,C[C@]1(COc2ccc(N3CCC(Oc4ccc(OC(F)(F)F)cc4)CC3)nc2)Cn2cc([N+](=O)[O-])nc2O1,185.9 to 186.7 °C
7,C[C@]1(COc2ccc3nc(Cl)ccc3c2)Cn2cc([N+](=O)[O-])nc2O1,182.2 to 184.7 °C
8,CC1(COc2ccc3nc(N4CCN(Cc5ccc(OC(F)(F)F)cc5)CC4)sc3c2)Cn2cc([N+](=O)[O-])nc2O1 (stereo not drawn),172.6 to 174.6 °C
9,C[C@]1(COc2ccc3nc(N4CCC(=Cc5ccc(OC(F)(F)F)cc5)CC4)ccc3c2)Cn2cc([N+](=O)[O-])nc2O1,193.9 to 195.9 °C
10,CN(Cc1ccc(N(C)CC=Cc2ccc(C(F)(F)F)cc2)cc1)C[C@@]1(C)Cn2cc([N+](=O)[O-])nc2O1,153.5 to 154.5 °C
11,C[C@]1(COc2ccc(N3CCN(Cc4ccc(N5CCC(Oc6ccc(OC(F)(F)F)cc6)CC5)cc4)CC3)cc2)Cn2cc([N+](=O)[O-])nc2O1,198.2 to 201.4 °C
12,O=[N+]([O-])c1cn2c(n1)O[C@@H](COc1ccc(N3CCC(OCc4ccc(OC(F)(F)F)cc4)CC3)cc1)C2,188.3 to 189.4 °C
13,O=[N+]([O-])c1cn2c(n1)OC(COc1ccc(N3CCC(COCc4ccc(C(F)(F)F)cc4)CC3)cc1)C2 (stereo not drawn),140.2 to 141.7 °C
14,C[C@]1(COc2ccc(N3CCC(CCc4ccc(OC(F)(F)F)cc4)CC3)cc2)Cn2cc([N+](=O)[O-])nc2O1,239.4 to 241.3 °C
15,CN(CC1CCN(c2ccc(OC(F)(F)F)cc2)CC1)c1ccc(OC[C@@]2(C)Cn3cc([N+](=O)[O-])nc3O2)cc1,172.5 to 175.2 °C
16,C[C@]1(COc2ccc(-c3ccc(N4CCN(Cc5ccc(Cl)cc5)CC4)cc3)cc2)Cn2cc([N+](=O)[O-])nc2O1,247.8 to 248.5 °C (dec.)
17,C[C@]1(COc2ccc(N3CCC(COc4ccc(C(F)(F)F)cc4)CC3)cc2)Cn2cc([N+](=O)[O-])nc2O1,223.2 to 225.2 °C (dec.)
18,C[C@]1(COc2ccc(N3CCC(COCc4ccc(C(F)(F)F)cc4)CC3)cc2)Cn2cc([N+](=O)[O-])nc2O1,172.3 to 172.9 °C
19,CN(Cc1cc(C(F)(F)F)cc(C(F)(F)F)c1)C1CCN(c2ccc(OC[C@@]3(C)Cn4cc([N+](=O)[O-])nc4O3)cc2)CC1,193.8 to 195.3 °C
20,C[C@]1(COc2ccc(C3CCN(CC=Cc4ccc(C(F)(F)F)cc4)CC3)cc2)Cn2cc([N+](=O)[O-])nc2O1,185.9 to 187.1 °C
21,CC1(COc2ccc(N3CCN(CC=Cc4ccc(OC(F)(F)F)cc4)CC3)cc2)Cn2cc([N+](=O)[O-])nc2O1 (stereo not drawn),181.1 to 182.2 °C
22,O=[N+]([O-])c1cn2c(n1)OC(COc1ccc(N3CCC(COc4ccc(Cl)cc4)CC3)cc1)C2 (stereo not drawn),191.2 to 192.5 °C

row,SMILES,melting point
1,C[C@]1(COc2ccc(N3CCC(N4CCN(c5ccc(Cl)cc5)CC4)CC3)cc2)Cn2cc([N+](=O)[O-])nc2O1,247 to 249 °C
2,C[C@]1(COc2ccc(N3CCC(Cc4cccc(OC(F)(F)F)c4)CC3)cc2)Cn2cc([N+](=O)[O-])nc2O1,187.4 to 189.8 °C
3,O=[N+]([O-])c1cn2c(n1)O[C@@H](COc1ccc(N3CCC(Cc4ccc(OC(F)(F)F)cc4)CC3)cc1)C2,160.5 to 164 °C
4,CC1(Cc2ccc(N3CCC(Oc4ccc(OC(F)(F)F)cc4)CC3)cc2)Cn2cc([N+](=O)[O-])nc2O1 (stereo not drawn),184.9 to 186.8 °C
5,C[C@]1(COc2ccc(N3CCC(CO)CC3)cc2)Cn2cc([N+](=O)[O-])nc2O1,171 to 173.8 °C
6,C[C@]1(COc2ccc(-c3nc(-c4ccc(Cl)cc4)co3)cc2)Cn2cc([N+](=O)[O-])nc2O1,248.8 to 251.5 °C
7,C[C@]1(COc2ccc(N3CCC(COC4CCCCO4)CC3)cc2)Cn2cc([N+](=O)[O-])nc2O1 (stereo partly drawn),217.6 to 218.6 °C
8,CN(CC=Cc1ccc(OC(F)(F)F)cc1)C1CCN(c2ccc(OC[C@@]3(C)Cn4cc([N+](=O)[O-])nc4O3)cc2)CC1,213 to 214.9 °C
9,C[C@]1(COc2ccc(N3CCN(CC=Cc4ccc(Cl)c(Cl)c4)CC3)cc2)Cn2cc([N+](=O)[O-])nc2O1,204.7 to 206.4 °C
10,CC1(COc2ccc(N3CCC(Cc4ccc(OC(F)(F)F)cc4)CC3)cc2)Cn2cc([N+](=O)[O-])nc2O1 (stereo not drawn),180.9 to 182.7 °C
11,O=[N+]([O-])c1cn2c(n1)OC(COc1ccc(N3CCC(Cc4ccc(OC(F)(F)F)cc4)CC3)cc1)C2 (stereo not drawn),132.7 to 135 °C
12,C[C@]1(COc2ccc(N3CCC(Nc4cc(Cl)cc(Cl)c4)CC3)cc2)Cn2cc([N+](=O)[O-])nc2O1,122 to 124 °C
13,CC1(COc2ccc(N3CCC(COc4ccc(Cl)cc4)CC3)cc2)Cn2cc([N+](=O)[O-])nc2O1 (stereo not drawn),190 to 190.4 °C
14,C[C@]1(COc2ccc(N3CCC(N4CCN(c5ccc(OC(F)(F)F)cc5)CC4)CC3)cc2)Cn2cc([N+](=O)[O-])nc2O1,279 to 281 °C
15,C[C@]1(COc2ccc3c(c2)nc(N2CCN(Cc4ccc(OC(F)(F)F)cc4)CC2)n3Cc2ccccc2)Cn2cc([N+](=O)[O-])nc2O1,101.3 to 104 °C
16,C[C@]1(COc2ccc3cc(N4CCC(Oc5ccc(OC(F)(F)F)cc5)CC4)ccc3c2)Cn2cc([N+](=O)[O-])nc2O1,204.8 to 207.9 °C
17,CN(CCCOc1ccc(OC(F)(F)F)cc1)C1CCN(c2ccc(OC[C@@]3(C)Cn4cc([N+](=O)[O-])nc4O3)cc2)CC1,167.4 to 170.2 °C
18,O=[N+]([O-])c1cn2c(n1)O[C@@H](COc1ccc(N3CCC(COc4ccc(C(F)(F)F)cc4)CC3)cc1)C2,175 to 180 °C
19,C[C@]1(COc2ccc(-c3ccc(N4CCN(Cc5ccc(Cl)c(Cl)c5)CC4)cc3)cc2)Cn2cc([N+](=O)[O-])nc2O1,222.6 to 225.1 °C (dec.)
20,C[C@]1(COc2ccc(N3CCN(Cc4csc(-c5ccc(C(F)(F)F)cc5)n4)CC3)cc2)Cn2cc([N+](=O)[O-])nc2O1,210 to 212.1 °C
21,CCCc1ccc(N(C)C2CCN(c3ccc(OC[C@@]4(C)Cn5cc([N+](=O)[O-])nc5O4)cc3)CC2)cc1,198 to 199 °C
22,C[C@]1(COc2ccc(CN3CCC(Cc4ccc(OC(F)(F)F)cc4)CC3)cc2)Cn2cc([N+](=O)[O-])nc2O1,172.5 to 174.1 °C

row,SMILES,melting point
1,CN(Cc1cc2cc(Cl)ccc2o1)C1CCN(c2ccc(OC[C@@]3(C)Cn4cc([N+](=O)[O-])nc4O3)cc2)CC1,207.4 to 210 °C
2,CC(C)(C)OC(=O)N1CCCN(c2ccc(-c3ccc(OC[C@@]4(C)Cn5cc([N+](=O)[O-])nc5O4)cc3)cc2)CC1,213.8 to 215.7 °C
3,C[C@]1(COc2ccc(N3CCC(OCc4ccc(C(F)(F)F)cc4)CC3)cc2)Cn2cc([N+](=O)[O-])nc2O1,217.4 to 219.7 °C
4,O=[N+]([O-])c1cn2c(n1)O[C@@H](COc1ccc(N3CCC(COCc4ccc(OC(F)(F)F)cc4)CC3)cc1)C2,140.4 to 141.7 °C
5,CC(C)(C)OC(=O)N1CCCN(c2ccc(-c3ccc(OC[C@H]4Cn5cc([N+](=O)[O-])nc5O4)cc3)cc2)CC1,235.5 to 237.5 °C
6,C[C@]1(COc2ccc(N3CCC(COC(=O)Nc4ccc(OC(F)(F)F)cc4)CC3)cc2)Cn2cc([N+](=O)[O-])nc2O1,211.6 to 212 °C (dec.)
7,C[C@]1(COc2ccc(N3CCN(CCOc4ccc(OC(F)(F)F)cc4)CC3)cc2)Cn2cc([N+](=O)[O-])nc2O1,194.8 to 195.6 °C
8,C[C@]1(COc2ccc(N3CCN(CC=Cc4ccc(C(F)(F)F)cc4)CC3)cc2)Cn2cc([N+](=O)[O-])nc2O1,199.7 to 202 °C
9,CN(Cc1ccccc1C(F)(F)F)C1CCN(c2ccc(OC[C@@]3(C)Cn4cc([N+](=O)[O-])nc4O3)cc2)CC1,189.6 to 190.2 °C
10,CN(CCOc1ccc(OC(F)(F)F)cc1)C1CCN(c2ccc(OC[C@@]3(C)Cn4cc([N+](=O)[O-])nc4O3)cc2)CC1,185.7 to 187.7 °C
11,C[C@]1(COc2ccc(N3CCC(COc4ccc(-c5ccccc5)cc4)CC3)cc2)Cn2cc([N+](=O)[O-])nc2O1,245 °C (dec.)
12,CC1(COc2ccc(N3CCC(COCc4ccc(OC(F)(F)F)cc4)CC3)cc2)Cn2cc([N+](=O)[O-])nc2O1 (stereo not drawn),153.1 to 153.7 °C
13,C[C@]1(COc2ccc(-c3ccc(N4CCN(Cc5ccc(C(F)(F)F)cc5)CC4)cc3)cc2)Cn2cc([N+](=O)[O-])nc2O1,247.7 to 248.4 °C (dec.)
14,C[C@]1(COc2ccc(N3CCCN(c4ccc(OC(F)(F)F)cc4)CC3)cc2)Cn2cc([N+](=O)[O-])nc2O1,134 to 137.9 °C
15,C[C@]1(COc2ccc(N3CCC(Nc4ccc(Cl)c(Cl)c4)CC3)cc2)Cn2cc([N+](=O)[O-])nc2O1,146 to 147.4 °C
16,O=[N+]([O-])c1cn2c(n1)O[C@@H](COc1ccc(N3CCC(CCc4ccc(OC(F)(F)F)cc4)CC3)cc1)C2,208.9 to 211.7 °C
17,CN(c1ccc(OC[C@@]2(C)Cn3cc([N+](=O)[O-])nc3O2)cc1)C1CCN(c2ccc(OC(F)(F)F)cc2)CC1,137.9 to 139.2 °C
18,CCCc1ccc(NC2CCN(c3ccc(OC[C@@]4(C)Cn5cc([N+](=O)[O-])nc5O4)cc3)CC2)cc1,222 to 223 °C
19,CC1(COc2ccc(N3CCC(Cc4ccc(Cl)c(Cl)c4)CC3)cc2)Cn2cc([N+](=O)[O-])nc2O1 (stereo not drawn),191.4 to 192.1 °C
20,C[C@]1(COc2ccc(C(=O)NCC(=O)N3CCC(Oc4ccc(OC(F)(F)F)cc4)CC3)cc2)Cn2cc([N+](=O)[O-])nc2O1,186.9 to 189.5 °C
21,C[C@]1(COc2ccc(N3CCC(COc4ccc(CCl)cc4)CC3)cc2)Cn2cc([N+](=O)[O-])nc2O1,140.4 to 141.7 °C
22,CN(C(=O)OC(C)(C)C)C1CCN(Cc2ccc(OCC3(C)Cn4cc([N+](=O)[O-])nc4O3)cc2)CC1 (stereo not drawn),138.5 to 141.9 °C
